One may read the CC50 as the concentration giving 50% cytotoxicity. Lower therefore signals harm at low concentration. The term EC50 denotes the concentration at which the effect is half-maximal.

SMILES strings stand for the structures. A value given as a limit tells only on which side of the number the result lay.

Data set [1] is described as follows: Compound cytotoxicity, XTT-based colorimetric assay. The conditions noted are these: human; uninfected MT2 cells, day 4, XTT. Type of data set: cell-based. The protocol:
Compound cytotoxicity and the corresponding CC50 values were determined using the same protocol as described in the antiviral assay except that uninfected cells were used. Cytotoxicity was assessed on day 4 in uninfected MT2 cells by using a XTT (2,3-bis[2-Methoxy-4-nitro-5-sulfophenyl]-2H-tetrazolium-5-carboxyanilide inner salt)-based colorimetric assay (Sigma-Aldrich, St Louis, Mo.).

Data set [2] has as its system recombinant NL4-3 virus (Renilla luciferase) in MT-2 cells. The experiment in a line: HIV cell culture assay (antiviral activity, luciferase readout in MT-2 cells). The conditions noted are these: NL43. Type of data set: cell-based. As to the method:
HIV cell culture assay—MT-2 cells, 293T cells and the proviral DNA clone of NL4-3 virus were obtained from the NIH AIDS Research and Reference Reagent Program. MT-2 cells were propagated in RPMI 1640 media supplemented with 10% heat inactivated fetal bovine serum (FBS), […]. The 293T cells were propagated in DMEM media supplemented with 10% heat inactivated FBS, […]. A recombinant NL4-3 proviral clone, in which a section of the nef gene was replaced with the Renilla luciferase gene, was used to make the reference virus used in these studies. The recombinant virus was prepared through transfection of the recombinant NL4-3 proviral clone into 293T cells using Transit-293 Transfection Reagent from Mirus Bio LLC (Madison, Wis.). Supernatant was harvested after 2-3 days and the amount of virus present was titered in MT-2 cells using luciferase enzyme activity as a marker by measuring luciferase enzyme activity. Luciferase was quantitated using the EnduRen Live Cell Substrate from Promega (Madison, Wis.). Antiviral activities of compounds toward the recombinant virus were quantified by measuring luciferase activity in MT-2 cells infected for 4-5 days with the recombinant virus in the presence of serial dilutions of the compound.
The 50% effective concentration (EC50) was calculated by using the exponential form of the median effect equation where (Fa)=1/[1+(ED50/drug conc.)m] (Johnson V A, Byington R T. Infectivity Assay. In Techniques in HIV Research. ed. Aldovini A, Walker B D. 71-76. New York: Stockton Press. 1990). The 50% inhibitory concentration (EC50) was calculated by using the exponential form of the median effect equation where percent inhibition=1/[1+(EC50/drug concentration)m], where m is a parameter that reflects the slope of the concentration-response curve.

In data set [1], `Cn1nc(NS(C)(=O)=O)c2c(Cl)ccc(-n3c([C@H](Cc4cc(F)cc(F)c4)NC(=O)Cn4nc(C(F)F)c5c4C(F)(F)[C@@H]4C[C@H]54)nc4cc(OCCC(C)(C)C(F)(F)F)ccc4c3=O)c21` (atropisomer, axis not shown; (P)) [Example 14, N—((S)-1-((3P)-3-(4-chloro-1-methyl-3-(methylsulfonamido)-1H-indazol-7-yl)-4-oxo-7-(4,4,4-trifluoro-3,3-dimethylbutoxy)-3,4-dihydroquinazolin-2-yl)-2-(3,5-difluorophenyl)ethyl)-2-((3bS,4aR)-3-(difluoromethyl)-5,5-difluoro-3b,4,4a,5-tetrahydro-1H-cyclopropa[3,4]cyclopenta[1,2-c]pyrazol-1-yl)acetamide] displayed a CC50 at 4 days of over 500 nM. For the same compound, in data set [2], the EC50 stood at 0.23 nM.

`Cn1nc(NS(C)(=O)=O)c2c(Cl)ccc(-n3c([C@H](Cc4cc(F)cc(F)c4)NC(=O)Cn4nc(C(F)F)c5c4C(F)(F)[C@@H]4C[C@H]54)nc4cc(OCCOC(F)F)ccc4c3=O)c21` (atropisomer, axis not shown; (P)) [Example 15, N—((S)-1-((3P)-3-(4-chloro-1-methyl-3-(methylsulfonamido)-1H-indazol-7-yl)-7-(2-(difluoromethoxy)ethoxy)-4-oxo-3,4-dihydroquinazolin-2-yl)-2-(3,5-difluorophenyl)ethyl)-2-((3bS,4aR)-3-(difluoromethyl)-5,5-difluoro-3b,4,4a,5-tetrahydro-1H-cyclopropa[3,4]cyclopenta[1,2-c]pyrazol-1-yl)acetamide] displayed a CC50 at 4 days in data set [1] of over 500 nM. In addition, in data set [2], the 50% effective concentration (EC50) is 0.051 nM.

Source of the values: patent US20210403465A1, “QUINAZOLINYL-INDAZOLE DERIVATIVES AND THEIR USE AS INHIBITORS OF HUMAN IMMUNODEFICIENCY VIRUS REPLICATION” (ViiV HEALTHCARE UK (NO.5) LIMITED, priority 2018, published 2021).
